Experimental data reported in patent publication US11679107B2 (Eisai R&D Management Co., Ltd., priority 2018, dated 2023).
Where two headings read alike, the source gives them in different places.

Experiments:
SF3b complexes = target: T1, SF3b complexes (Homo sapiens, UniProt O75533+Q7RTV0); test: Scintillation proximity assay (SPA) with [3H]-labelled pladienolide probe; type: binding; conditions: SF3B1 (WT); geometric mean; read-out: SPA-ATS GMean IC50 (nM) SF3B1 (WT)
T1 construct: endogenous in cells; host or cells: Nuclear extracts; A HeLa S3 extract preparation is described for the in vitro splicing assay
Method in brief: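 SF3b complexes captured from nuclear extracts on anti-SF3B1 antibody SPA beads; test compounds pre-incubated 30 min before 2.5 nM [3H]-pladienolide probe added, then 30 min incubation. Bound probe read by scintillation; values from non-linear regression of concentration–response curves.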

[1] = test system: Ad2 variant pre-mRNAs spliced in HeLa S3 nuclear extracts; test: In vitro splicing assay (IVS), RT-qPCR of spliced product; type: biochemical; conditions: for IC50: geometric mean; for Ratio Ad2.1/2.2: ratio of IVS IC50 Ad2.1 to Ad2.2
Method in brief: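 Read-out is one-step TaqMan RT-qPCR of spliced Ad2 mRNA with Ftz as reference, normalized to DMSO and fit by non-linear regression. Reactions held HeLa S3 nuclear extract, 2 ng Ad2-derived pre-mRNA and test compound, with 15 min preincubation. Splicing was started with ATP-containing activation buffer and run 90 min at 30 °C.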

[2] = test system: Panc 05.04 cells (SF3b K700E mutant); test: Cell proliferation and viability, CellTiter-Glo, 72 hours; type: cell-based; conditions: for GI50: geometric mean
Method in brief: (§1)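 ATP luminescence (CellTiter-Glo) was measured 72 h after treatment with compound at 10 μM–100 pM (11 points, half-log) in 0.1% DMSO. The Panc line was grown in RPMI-1640 plus insulin and 15% FBS, the other in 10% FBS. Data were normalised to time zero and vehicle controls, where −100% is cidal and 0% static.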

[3] = test system: NCI-H1568 cells (high MCL1); test: as above; type: cell-based; conditions: for GI50: geometric mean
Method in brief: as §1

[4] = Ad2.1 pre-mRNA substrate, read-out: qPCR-IVS-ATS GMean IC50 (nM) Ad2.1
[5] = Ad2.2 pre-mRNA substrate, read-out: qPCR-IVS-ATS GMean IC50 (nM) Ad2.2
[6] = PANC0504.1 cells, 72 h, −100% cidal, 0% static, 100% maximal growth
[7] = Panc 05.04, 72 h, read-out: CTGlo-ATS GMean GI50 (nM) 72 h PANC0504.1, PANC0504.1 cells, 72 h
[8] = NCI-H1568, 72 h, read-out: CTGlo-ATS GMean GI50 (nM) 72 h NCIH1568.1, NCIH1568.1 cells, 72 h
[9] = NCIH1568.1 cells, 72 h, −100% cidal, 0% static, 100% maximal growth
[10] = 72 h, PANC0504.1, -100% = cidal, 0% = static, 100% = uninhibited growth
[11] = Panc 05.04, read-out: CTGlo-ATS GMean GI50 (nM) 72 h PANC0504.1, 72 h, PANC0504.1
[12] = 72 h, NCIH1568.1, -100% = cidal, 0% = static, 100% = uninhibited growth
[13] = NCI-H1568, read-out: CTGlo-ATS GMean GI50 (nM) 72 h NCIH1568.1, 72 h, NCIH1568.1
[14] = Panc 05.04, read-out: CTGlo-ATS GMean GI50 (nM) 72 h PANC0504.1, PANC0504.1 cells, 72 h
[15] = NCI-H1568, read-out: CTGlo-ATS GMean GI50 (nM) 72 h NCIH1568.1, NCIH1568.1 cells, 72 h

Compound	IC50 (SF3b complexes) [nM]	IC50 [1, 4] [nM]	IC50 [1, 5] [nM]	CTGlo-ATS Mean MinResponse % 72 h PANC0504.1 [2, 6] [%]	GI50 [2, 7] [nM]	GI50 [3, 8] [nM]	CTGlo-ATS Mean MinResponse % 72 h NCIH1568.1 [3, 9] [%]	Ratio Ad2.1/2.2 [1]	CTGlo-ATS Mean MinResponse % 72 h PANC0504.1 [2, 10] [%]	GI50 [2, 11] [nM]	CTGlo-ATS Mean MinResponse % 72 h NCIH1568.1 [3, 12] [%]	GI50 [3, 13] [nM]	GI50 [2, 14] [nM]	GI50 [3, 15] [nM]
C/C(=C\c1cc(F)cc(N2CCS(=O)(=O)CC2)c1)[C@H]1OC(=O)C[C@H](O)CC[C@H](C)[C@@H](OC(=O)N2CCN(C)CC2)/C=C/[C@@H]1C [Compound 52]	8.3	39.6	45.4	−76.609	13.6	23.3	−63.079	–	–	–	–	–	–	–
C/C(=C\c1ccc(C)c(S(=O)(=O)N2CCCC2)c1)[C@H]1OC(=O)C[C@H](O)CC[C@H](C)[C@@H](OC(=O)N2CCN(C)CC2)/C=C/[C@@H]1C [Compound 203, [(2S,3S,4E,6R,7S,10R)-10-hydroxy-3,7-dimethyl-2-[(E)-1-(4-methyl-3-pyrrolidin-1-ylsulfonylphenyl)prop-1-en-2-yl]-12-oxo-1-oxacyclododec-4-en-6-yl] 4-methylpiperazine-1-carboxylate]	10.1	14400	69.7	–	–	–	–	207.149	−94.627	45	−36.664	47.3	–	–
C/C(=C\c1cc(F)cc(N2CCOCC2)c1)[C@H]1OC(=O)C[C@H](O)CC[C@H](C)[C@@H](OC(=O)N(C)C2CN3CCC2CC3)/C=C/[C@@H]1C (stereo partly drawn) [Compound 98]	3.45	159	35.9	−87.759	10.3	11.5	−75.954	–	–	–	–	–	–	–
C/C(=C\c1cc(F)cc(N2CCN(C(=O)C3CCOCC3)CC2)c1)[C@H]1OC(=O)C[C@H](O)CC[C@H](C)[C@@H](OC(=O)N2CCN(C)CC2)/C=C/[C@@H]1C [Compound 118]	3.76	22	19.9	−79.169	4.55	3	−82.113	–	–	–	–	–	–	–
C/C(=C\c1cccc(S(=O)(=O)N2CCC2)c1)[C@H]1OC(=O)C[C@H](O)CC[C@H](C)[C@@H](OC(=O)N2CCN(C)CC2)/C=C/[C@@H]1C [Compound 198, [(2S,3S,4E,6R,7S,10R)-2-[(E)-1-[3-(azetidin-1-ylsulfonyl)phenyl]prop-1-en-2-yl]-10-hydroxy-3,7-dimethyl-12-oxo-1-oxacyclododec-4-en-6-yl] 4-methylpiperazine-1-carboxylate]	7.82	2390	43.2	–	–	–	–	55.224	−96.773	21.7	−56.095	15.5	–	–
C/C(=C\c1cc(F)cc(N2CCC[C@@H]2CO)c1)[C@H]1OC(=O)C[C@H](O)CC[C@H](C)[C@@H](OC(=O)N2CCN(C)CC2)/C=C/[C@@H]1C [Compound 44]	8.26	12800	86.6	−92.314	41.5	67.2	−14.871	–	–	–	–	–	–	–
C/C(=C\c1cccc(S(=O)(=O)N2CCCCC2)c1)[C@H]1OC(=O)C[C@H](O)CC[C@H](C)[C@@H](OC(=O)N2CCN(C)CC2)/C=C/[C@@H]1C [Compound 213, [(2S,3S,4E,6R,7S,10R)-10-hydroxy-3,7-dimethyl-12-oxo-2-[(E)-1-(3-piperidin-1-ylsulfonylphenyl)prop-1-en-2-yl]-1-oxacyclododec-4-en-6-yl] 4-methylpiperazine-1-carboxylate]	3.23	9.84	7.96	–	–	–	–	1.236	−85.603	3.2	−64.116	6.03	–	–
C/C(=C\c1cc(F)cc(N2CCN(S(C)(=O)=O)CC2)c1)[C@H]1OC(=O)C[C@H](O)CC[C@H](C)[C@@H](OC(=O)N2CCN(C)CC2)/C=C/[C@@H]1C [Compound 58]	6.54	30.1	22	−91.132	–	–	−70.067	–	–	–	–	–	6.97	7
C/C(=C\c1cc(F)cc(N2CCN(S(=O)(=O)c3cnn(C)c3)CC2)c1)[C@H]1OC(=O)C[C@H](O)CC[C@H](C)[C@@H](OC(=O)N2CCN(C)CC2)/C=C/[C@@H]1C [Compound 111]	28	–	–	−71.803	13.9	12.8	−81.303	–	–	–	–	–	–	–
COCCN1CCN(c2cc(F)cc(/C=C(\C)[C@H]3OC(=O)C[C@H](O)CC[C@H](C)[C@@H](OC(=O)N4CCN(C)CC4)/C=C/[C@@H]3C)c2)CC1=O [Compound 105]	2.87	–	–	−90.949	5.85	6.95	−68.464	–	–	–	–	–	–	–
C/C(=C\c1cc(F)cc(N2CCN(S(=O)(=O)c3cccnc3)CC2)c1)[C@H]1OC(=O)C[C@H](O)CC[C@H](C)[C@@H](OC(=O)N2CCN(C)CC2)/C=C/[C@@H]1C [Compound 112]	12.8	–	–	−80.066	–	–	−86.973	–	–	–	–	–	8.29	6.23
C/C(=C\C1=CCCN(C(=O)OC(C)(C)C)C1)[C@H]1OC(=O)C[C@H](O)CC[C@H](C)[C@@H](OC(=O)N2CCN(C)CC2)/C=C/[C@@H]1C [Compound 219, [(2S,3S,4E,6R,7S,10R)-10-hydroxy-3,7-dimethyl-2-[(E)-1-[1-[(2-methylpropan-2-yl)oxycarbonyl]-3,6-dihydro-2H-pyridin-5-yl]prop-1-en-2-yl]-12-oxo-1-oxacyclododec-4-en-6-yl] 4-methylpiperazine-1-carboxylate]	7.96	–	–	–	–	–	–	–	−91.460	24.6	−42.617	42.4	–	–
C/C(=C\c1cc(F)cc(N2CCN(S(=O)(=O)c3cn(C)cn3)CC2)c1)[C@H]1OC(=O)C[C@H](O)CC[C@H](C)[C@@H](OC(=O)N2CCN(C)CC2)/C=C/[C@@H]1C [Compound 113]	8.2	–	–	−80.966	–	–	−73.107	–	–	–	–	–	49	41.8
